# Assays:
# Histone deacetylase 1 = Histone deacetylase 1 (Homo sapiens, UniProt Q13547); test: Inhibition of human HDAC1 (379 to 382 residues) using RHKKAc-AMC fluorogenic peptide as substrate by fluorescence assay
# GL26 [1] = test: Inhibition of HDAC in mouse GL26 cells assessed as increase in histone H3 acetylation at 0.62 to 1.25 uM incubated for 48 hrs by Western blot analysis; assay type: cell-based; conditions: dose 0.62-1.25 µM, DDE = dose-dependent effect
# GL26 [2] = test: Inhibition of HDAC in mouse GL26 cells assessed as increase in alpha tubulin level at 0.62 to 1.25 uM incubated for 48 hrs by Western blot analysis; assay type: cell-based; conditions: dose 0.62-1.25 µM, DDE = dose-dependent effect
# [3] = target: T1, Protein deacetylase HDAC6 (Homo sapiens, UniProt Q9UBN7); test: Inhibition of human HDAC6 (379 to 382 residues) using RHKKAc fluorogenic peptide as substrate by fluorescence assay
# T1 sequence (Q9UBN7 whole entry): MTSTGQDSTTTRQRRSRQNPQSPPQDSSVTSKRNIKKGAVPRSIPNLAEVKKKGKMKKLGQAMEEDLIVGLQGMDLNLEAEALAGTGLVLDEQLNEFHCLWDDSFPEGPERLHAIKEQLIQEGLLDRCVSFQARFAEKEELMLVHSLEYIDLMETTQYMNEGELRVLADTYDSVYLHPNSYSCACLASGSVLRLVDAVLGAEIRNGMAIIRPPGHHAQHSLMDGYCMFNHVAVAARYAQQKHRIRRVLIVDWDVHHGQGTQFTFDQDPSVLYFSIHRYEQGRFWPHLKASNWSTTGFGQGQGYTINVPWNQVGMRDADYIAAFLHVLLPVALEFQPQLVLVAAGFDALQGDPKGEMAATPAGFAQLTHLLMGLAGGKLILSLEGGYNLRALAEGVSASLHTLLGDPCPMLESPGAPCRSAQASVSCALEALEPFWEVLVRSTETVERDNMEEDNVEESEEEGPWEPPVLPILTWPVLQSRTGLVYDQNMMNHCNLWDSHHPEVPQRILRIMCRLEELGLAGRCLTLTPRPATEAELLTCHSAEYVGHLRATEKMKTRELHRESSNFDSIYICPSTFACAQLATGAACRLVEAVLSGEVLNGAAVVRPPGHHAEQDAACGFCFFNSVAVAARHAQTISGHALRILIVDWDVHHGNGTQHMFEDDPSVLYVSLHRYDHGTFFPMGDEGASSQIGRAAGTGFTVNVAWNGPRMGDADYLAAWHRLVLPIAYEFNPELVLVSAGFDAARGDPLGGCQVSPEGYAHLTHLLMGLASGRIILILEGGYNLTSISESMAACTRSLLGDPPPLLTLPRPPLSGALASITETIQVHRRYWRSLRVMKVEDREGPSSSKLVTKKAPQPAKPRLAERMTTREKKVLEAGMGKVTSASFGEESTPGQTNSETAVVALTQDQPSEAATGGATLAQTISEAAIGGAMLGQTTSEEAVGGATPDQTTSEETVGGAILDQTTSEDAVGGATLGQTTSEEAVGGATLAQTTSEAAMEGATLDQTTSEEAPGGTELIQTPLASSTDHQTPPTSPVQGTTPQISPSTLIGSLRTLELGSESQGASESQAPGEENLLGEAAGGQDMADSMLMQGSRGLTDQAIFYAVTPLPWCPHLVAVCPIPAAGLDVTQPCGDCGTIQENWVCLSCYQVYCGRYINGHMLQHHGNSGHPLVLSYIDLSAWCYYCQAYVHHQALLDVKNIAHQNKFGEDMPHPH
# GL26 [4] = test: Induction of apoptosis in mouse GL26 cells assessed as proteolytic cleavage of PARP1 incubated for 48 hrs by Western blot analysis; assay type: functional, cell-based; conditions: dose 1.25-5 µM, DDE = dose-dependent effect
# [5] = Toxicity in mouse bearing intracranial tumor assessed as median survival time at 50 mg/kg, ip for 10 days (Rvb= 13.8 days); assay type: organism-based; conditions: in vivo, 240 h, time 10 day
# [6] = Toxicity in mouse bearing intracranial tumor assessed as median survival time at 25 mg/kg, ip for 10 days (Rvb= 13.8 days); assay type: organism-based; conditions: in vivo, 240 h, time 10 day
# [7] = Toxicity in mouse bearing intracranial tumor assessed as last day of survival at 25 mg/kg,ip for 10 days (Rvb=16 days); assay type: organism-based; conditions: in vivo, 240 h, time 10 day
# [8] = target: Lysine-specific histone demethylase 1A (Homo sapiens, UniProt O60341); test: Inhibition of human LSD1 assessed as demethylase activity of LSD1 using Histone H3(1-21)K4me2 peptide as substrate incubated for 30 mins followed by substrate addition by amplex red dye based HRP-coupled assay
# Histone deacetylase 1, sequence (Q13547 whole entry, the tested form may be a part): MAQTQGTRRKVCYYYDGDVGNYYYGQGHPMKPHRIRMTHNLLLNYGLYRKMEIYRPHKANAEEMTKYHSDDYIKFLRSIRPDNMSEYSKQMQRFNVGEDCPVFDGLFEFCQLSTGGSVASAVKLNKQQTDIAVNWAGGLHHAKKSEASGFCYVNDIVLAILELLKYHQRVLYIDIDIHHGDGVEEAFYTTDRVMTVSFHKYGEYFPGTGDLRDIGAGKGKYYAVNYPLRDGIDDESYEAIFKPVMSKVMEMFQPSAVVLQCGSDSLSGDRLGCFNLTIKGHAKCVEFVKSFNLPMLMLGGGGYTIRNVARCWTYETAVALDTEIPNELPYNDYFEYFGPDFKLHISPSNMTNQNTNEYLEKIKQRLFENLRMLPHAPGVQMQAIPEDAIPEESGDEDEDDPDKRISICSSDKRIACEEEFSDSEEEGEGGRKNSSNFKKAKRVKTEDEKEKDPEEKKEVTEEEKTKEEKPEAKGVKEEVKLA
Compound,IC50 (Histone deacetylase 1) [nM],Activity (GL26 [1]),Activity (GL26 [2]),IC50 [3] [nM],Activity (GL26 [4]),Survival [5] [days],Survival [6] [days],Survival [7] [days],EC50 [8] [µM]
C#CCN(C)CCCOc1ccc(NC(=O)CCCCCCC(=O)NO)cc1Cl,140,Dde,Dde,6,Dde,14.4,,,
C#CCN(C)CCCOc1cc(NCc2ccc(/C=C/C(=O)NO)cc2)ccc1Cl,510,,,100,,,16.4,21,10
